Entries after “also recorded” stand apart in the source; their conditions may differ.

Data set [1] has as its target T1, human RGS12 RGS-box (wild-type) (Homo sapiens, UniProt O14924).
T1 construct: human RGS12 RGS-box (aa 695–843 of UniProt O14924); host or cells: E. coli
T1 sequence (O14924 695-843): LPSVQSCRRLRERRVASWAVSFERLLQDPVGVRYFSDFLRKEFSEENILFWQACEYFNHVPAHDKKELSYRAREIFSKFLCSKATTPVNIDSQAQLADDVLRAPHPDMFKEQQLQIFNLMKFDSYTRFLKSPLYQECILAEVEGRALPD
Briefly: Transcreener GDP RGScreen fluorescence polarization assay of RGS12 RGS-box GAP activity on Gαi1(DM). It counts as biochemical. To be noted: wild-type RGS12 RGS-box GAP activity, Gαi1(DM); for IC50: read-out: RGS12 pIC50 (converted). From the text: (§1) We previously described work with BellBrook Labs creating the Transcreener GDP RGScreen fluorescence polarization assay of steady-state GTP hydrolysis, leveraging a double point-mutant in the Gα enzyme to make GTP hydrolysis, rather than GDP (product) release, the rate-limiting step for multiple rounds of GTP conversion ([57], [59]). […] Titrating inputs of the double point-mutant (“DM”) Gαi1 and RGS-box recombinant proteins (Fig. S2, B and C) established a robust, medium-throughput assay for evaluating potential RGS14 and RGS12 inhibitors, with “assay quality” Z′ scores ([60]) above 0.76 for each target (Fig. S2D).
(§2) Reagents and protocols for the fluorescence anisotropy-based Transcreener GDP RGScreen assay using a rate-altered, double point-mutant, recombinant Gαi1 protein have been extensively described previously ([43], [44]); reactions were always performed so that total GTP converted over the time course was consistently less than 10% of reaction maximum input. Specific methods for its application in assessing RGS14 and RGS12 GAP activity are summarized as follows. Open-reading frames (ORFs) encoding wild-type versions of the human RGS14 RGS-box (aa 46–195 of UniProt O43566) and human RGS12 RGS-box (aa 695–843 of UniProt O14924) were each sub-cloned in-frame with an N-terminal hexahistidine (His6) expression tag in the plasmid pET30a, expressed in E. coli cultures, and then purified by nickel-nitriloacetate (Ni-NTA) and size-exclusion (Superdex 200) column chromatographies by GenScript using previously described methods ([35]). These recombinant His6-tag fusion proteins were stored at −80 °C in storage buffer (150 mM NaCl, 50 mM Tris-HCl pH 8.0, 10% glycerol) before thawing and use. Cysteine-less versions were similarly produced by ORF site-directed mutagenesis: for RGS14, codons for cysteine residues 47 and 130 (numbered as in PDB id 2JNU) were replaced with serine codons; for RGS12, codons for cysteines 4, 51, 78, and 134 (numbered in relation to PDB id 2EBZ) were replaced with serine codons. Use of Transcreener GDP-detection reagents to assess compound inhibition of Naegleria fowleri Gα7 protein GTPase activity ([83]) has previously been described ([84]).

For another data set, the system named is THP-1 cell line. Briefly: Cytotoxicity assays (CytoTox-Glo, CytoTox 96). It counts as cell-based. To be noted: THP-1 cells, overnight, CytoTox-Glo and CytoTox 96. As to the method:
To evaluate cellular toxicity of active compounds, we employed the immortalized human monocytic THP1-Dual cell line (InvivoGen) in two orthogonal cytotoxicity assays: ATP-dependent luminescence (CytoTox-Glo) and colorimetric lactate dehydrogenase (LDH) release (CytoTox 96). For each assay, compounds were serially diluted 2-fold starting at 250 μM and added to 96-well flat-bottom tissue culture plates (Thermo Scientific Nunc, Cat# 165306). THP1-Dual cells were then seeded at 20,000 to 30,000 cells per well in 100 μl RPMI 1640 media supplemented with 10% fetal bovine serum (Gibco). Plates were gently mixed and incubated overnight at 37 °C in a humidified 5% CO2 incubator. For the CytoTox-Glo assay (Promega, Cat# G9291), 50 μl of assay reagent was added to each well. Plates were mixed briefly, sealed, and incubated at room temperature for 15 min before reading luminescence on a TECAN Infinite M1000 Pro plate reader to quantify dead-cell signal. Subsequently, 50 μl of a digitonin-containing lysis solution was added to each well, followed by a second luminescence read after 15 min to assess total cell content. Percent cytotoxicity was calculated per manufacturer instructions. For the CytoTox 96 Non-Radioactive Cytotoxicity Assay (Promega, Cat# G1780), after overnight compound treatment, LDH release into the culture medium was measured by adding the provided substrate mix. Absorbance was read at 490 or 492 nm within 1 h of adding the stop solution. Assay optimization and data normalization were conducted according to the manufacturer’s technical manual.

The target in data set [2] is T2, human RGS14 RGS-box (wild-type) (Homo sapiens, UniProt O43566).
T2 construct: human RGS14 RGS-box (aa 46–195 of UniProt O43566); host or cells: E. coli
T2 sequence (O43566 46-195): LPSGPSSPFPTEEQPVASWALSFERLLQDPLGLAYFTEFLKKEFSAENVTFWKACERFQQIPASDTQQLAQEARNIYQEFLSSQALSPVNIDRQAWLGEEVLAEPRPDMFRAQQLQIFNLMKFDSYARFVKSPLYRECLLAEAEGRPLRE
Briefly: Transcreener GDP RGScreen fluorescence polarization assay of RGS14 RGS-box GAP activity on Gαi1(DM). Conditions: for Ratio (RGS14 pIC50 / RGS12 pIC50): values > 1.0 reflect RGS14 selectivity; for IC50: read-out: RGS14 pIC50 (converted). It counts as biochemical.
Description: as §1, §2

Data set [3] in a line: Single-dose pharmacokinetic study, plasma and brain by LC-MS/MS. The data set is classed as in vivo, male Swiss-Webster mice. As to the method: Single-dose pharmacokinetic (PK) studies were conducted under IACUC-approved protocols of the UNTSCP Preclinical Services laboratory at the University of North Texas Health Science Center. Male Swiss-Webster (CFW) mice (∼30 g; Charles River) were used in both studies, housed in groups of three per cage with ad libitum access to food and water and acclimated for a minimum of 3 days prior to dosing. Each compound was evaluated in a single-dose, time-course design using three mice per time point across seven collection points (0.25, 0.5, 1, 2, 4, 8, and 24 h post-dose). For Z56944652, mice received a single intraperitoneal (IP) dose of 10 mg/kg (0.2 ml at 1.5 mg/ml). At each designated time point, mice were euthanized via CO2 inhalation, and blood was collected by cardiac puncture for plasma isolation (K2-EDTA tubes). Brains were aseptically removed, flash-frozen, and stored at −80 °C. For Z55628018, due to poor detection in preliminary studies, the protocol was modified to enhance systemic exposure. Mice were pre-dosed orally with 50 mg/kg of the pan-CYP inhibitor 1-aminobenzotriazole (ABT; ref. ([67])) 2 h prior to administration of Z55628018. The compound was then administered via IP injection at a single dose of 30 mg/kg (0.2 ml at […]). Sample collection and processing procedures were identical to those described above for Z56944652.
LC-MS/MS analyses were performed at UNTHSC using an Agilent 1260 Infinity HPLC system coupled to an Agilent 6460 Triple Quadrupole mass spectrometer equipped with Jet Stream electrospray ionization (ESI) in positive ion mode. Separation was carried out on a Poroshell 120 EC-C18 column (50 × 3.0 mm, 2.7 μm particle size) maintained at 30 °C, with a mobile phase consisting of 0.1% formic acid in water (A) and 0.1% formic acid in acetonitrile (B) under a standard gradient elution at a flow rate of 0.5 ml/min. The injection volume was 2 μl. Multiple reaction monitoring (MRM) transitions were optimized for each compound: Z56944652 was detected at m/z 353.1 → 227/132/126, and Z55628018 at m/z 391 → 134.8/247.9/132/121. The internal standard, carbamazepine, was monitored at m/z 237.2 → 167. Plasma samples (30–40 μl) were extracted with 1000 to 1200 μl of either acetonitrile or a 50:50 acetonitrile:methanol mixture containing carbamazepine (150–500 ng/ml), followed by vortexing, sonication, centrifugation, and supernatant collection for injection. Brain samples were homogenized in organic solvent (2 ml per 0.5 g tissue), vortexed, centrifuged, and processed using the same analytical workflow. Matrix-matched calibration curves were prepared using blank plasma or brain extract and validated over appropriate dynamic ranges: 0.09 to 46 μg/ml (plasma) and 0.547 to 70 ng/ml (brain) for Z56944652; 0.1 to 12.5 μg/ml (plasma) and 0.1 to 3.13 ng/ml (brain) for Z55628018. […] Retention times were 5.0 ± 0.01 min for Z56944652 and 3.3 ± 0.01 min for Z55628018, with the internal standard eluting at 4.0 ± 0.02 min.

The mark [4] stands for this setting: wild-type RGS14 RGS-box GAP activity, Gαi1(DM), Transcreener GDP RGScreen.

Turning to `C1=C(c2cc3ccccc3o2)Nn2c(nnc2C2COc3ccccc3O2)S1` (stereo not drawn) [Z55628018, 6-(1-benzofuran-2-yl)-3-(2,3-dihydro-1,4-benzodioxin-2-yl)-5H-[1,2,4]triazolo[3,4-b][1,3,4]thiadiazine], the values for the IC50 in data set [1] and in data set [2] (setting [4]) were 5.75 µM and 14.5 µM, respectively. In the data set on THP-1 cell line, the cytotoxicity result was “Neither triazolothiadiazine derivative was observed to induce significant cell death”. The “Ratio (RGS14 pIC50 / RGS12 pIC50)” value in data set [2] is recorded as 0.92. Also, the brain tissue concentration entry in data set [3] (30 mg/kg IP after 50 mg/kg oral 1-aminobenzotriazole, any time point) is listed as “No measurable concentrations; also recorded: undetectable”. For the same compound, in data set [3] (male, Swiss-Webster (CFW), mouse, plasma, intraperitoneal, 30 mg/kg IP after 50 mg/kg oral 1-aminobenzotriazole, one of three mice, 1-h time point), the concentration at 1 h stood at 170 ng/mL.

As for `COc1ccccc1C1=CSc2nnc(COc3ccccc3)n2N1` [Z56944652, 6-(2-methoxyphenyl)-3-(phenoxymethyl)-5H-[1,2,4]triazolo[3,4-b][1,3,4]thiadiazine], the IC50 is 3.39 µM in data set [1] and 19.1 µM in data set [2] (setting [4]). Further, in the data set on THP-1 cell line, the cytotoxicity entry was “Neither triazolothiadiazine derivative was observed to induce significant cell death”. In addition, the “Ratio (RGS14 pIC50 / RGS12 pIC50)” value in data set [2] is listed as 0.86. In data set [3] (10 mg/kg IP single dose, mice), the “time of peak brain level” value is listed as 1 h. In data set [3] (10 mg/kg IP single dose, mice, 1 h post-dose), this compound displayed a peak brain level of about 20 ng/g tissue. Also, in data set [3] (10 mg/kg IP, three Swiss Webster mice, at 1 h), the “peak CNS level (mean ± SD)” value worked out at 19.5 ± 0.3 ng/gram brain tissue. For the same compound, the Kp in data set [3] (male, Swiss-Webster (CFW), mouse, brain, 10 mg/kg IP, throughout the measured time course, read-out: brain-to-plasma concentration ratio (Kp)) was about 1.

Turning to `Cc1ccc(C2=Nn3c(COc4ccccc4)nnc3SC2)c(C)c1` [Z55659515], the IC50 in data set [1] and in data set [2] (setting [4]) was 4.07 µM throughout.

Turning to `COc1ccc(-c2nnc3n2N=C(c2ccc(NC(C)=O)cc2)[C@@H](C)S3)cc1OC` [Z90277200], the IC50 is 18.6 µM in data set [1] and 30.2 µM in data set [2] (setting [4]). For the same compound, the “Ratio (RGS14 pIC50 / RGS12 pIC50)” value in data set [2] was 0.96.

In the case of `O=C(O)C[C@@H]1Sc2nnc(-c3ccco3)n2N=C1c1ccccc1` [Z90276389], the IC50 is 83.2 µM in data set [1] and 79.4 µM in data set [2] (setting [4]). The “Ratio (RGS14 pIC50 / RGS12 pIC50)” value in data set [2] was found to be 1.00.

As to `Fc1ccccc1OCc1nnc2n1N=C(c1ccc(Cl)cc1)CS2` [Z55660438], the IC50 in data set [1] was 20.4 µM; in data set [2] (setting [4]), 234 µM. Moreover, the “Ratio (RGS14 pIC50 / RGS12 pIC50)” value in data set [2] was found to be 0.77.

For `COc1ccc(OCc2nnc3n2N=C(c2cc(C)n(-c4nccs4)c2C)CS3)cc1` [Z667824954], the IC50 is 64.6 µM in data set [1] and 219 µM in data set [2] (setting [4]). For the same compound, the “Ratio (RGS14 pIC50 / RGS12 pIC50)” value in data set [2] came out at 0.87.

With `COc1ccc(OCc2nnc3n2N=C(c2cccc(N4CCCC4=O)c2)CS3)cc1` [Z667824974], the IC50 is 224 µM in data set [1] and 646 µM in data set [2] (setting [4]). For the same compound, the “Ratio (RGS14 pIC50 / RGS12 pIC50)” value in data set [2] was determined as 0.87.

Turning to `CCCc1ccc(C2=Nn3c(COc4ccccc4F)nnc3SC2)cc1` [Z55660462], the IC50 in data set [1] was 10.5 µM; in data set [2] (setting [4]) it was 16.6 µM. In addition, the “Ratio (RGS14 pIC50 / RGS12 pIC50)” value in data set [2] is 0.96.

As to `CCN(CC)S(=O)(=O)c1cccc(-c2nnc3n2N=C(c2ccc(C)cc2)C(CC(=O)O)S3)c1` (stereo not drawn) [Z90274338], the IC50 in data set [1] is 288 µM; in data set [2] (setting [4]), 93.3 µM. Besides, the “Ratio (RGS14 pIC50 / RGS12 pIC50)” value in data set [2] stood at 1.14.

Regarding `COc1ccc(OCc2nnc3n2N=C(c2ccc(NC(C)=O)cc2)CS3)cc1` [Z55660046], the IC50 in data set [1] was 155 µM; in data set [2] (setting [4]), over 1000 µM.

For `O=C(O)CC1Sc2nnc(Cc3ccc(Br)cc3)n2N=C1c1ccc(Cl)cc1` (stereo not drawn) [Z90276771], the “RGS12 pIC50” value in data set [1] is recorded as 4.96. In data set [2], the “Ratio (RGS14 pIC50 / RGS12 pIC50)” value is 0.91. The “RGS14 pIC50” value in data set [2] (setting [4]) came out at 4.53.

Source of the values: PMC12495443, “Developing inhibitors of the guanosine triphosphate hydrolysis accelerating activity of Regulator of G protein Signaling-14 [drawing 1]” (The Journal of Biological Chemistry, 2025).
